Here are results for one compound from ChEMBL document CHEMBL5252648, “Design, synthesis and bioactivity evaluation of a series of quinazolinone derivatives as potent PI3Kγ antagonist” (Bioorg Med Chem, 2023).

Series [1] concerns Jurkat. Briefly: Induction of apoptosis against human Jurkat cells assessed as early apoptotic cells at 1 uM measured for 24 hrs by Annexin V-FITC/propidium iodide staining based flow cytometry (reference value: 5.76%). Type of series: functional.
Series [2] relates to THP-1. Briefly: Induction of apoptosis against human THP-1 cells assessed as necrotic cells at 0.1 uM measured for 24 hrs by Annexin V-FITC/propidium iodide staining based flow cytometry (reference value: 0.316%). Type of series: functional.
Another series relates to T47D. Briefly: Cytotoxicity against human T47D cells assessed as reduction in cell viability incubated for 24 hrs by CCK-8 assay. Type of series: functional, cell-based.
Series [3] has as its target T1, Phosphatidylinositol 4,5-bisphosphate 3-kinase catalytic subunit delta isoform (Homo sapiens, UniProt O00329).
T1 sequence (O00329 whole entry): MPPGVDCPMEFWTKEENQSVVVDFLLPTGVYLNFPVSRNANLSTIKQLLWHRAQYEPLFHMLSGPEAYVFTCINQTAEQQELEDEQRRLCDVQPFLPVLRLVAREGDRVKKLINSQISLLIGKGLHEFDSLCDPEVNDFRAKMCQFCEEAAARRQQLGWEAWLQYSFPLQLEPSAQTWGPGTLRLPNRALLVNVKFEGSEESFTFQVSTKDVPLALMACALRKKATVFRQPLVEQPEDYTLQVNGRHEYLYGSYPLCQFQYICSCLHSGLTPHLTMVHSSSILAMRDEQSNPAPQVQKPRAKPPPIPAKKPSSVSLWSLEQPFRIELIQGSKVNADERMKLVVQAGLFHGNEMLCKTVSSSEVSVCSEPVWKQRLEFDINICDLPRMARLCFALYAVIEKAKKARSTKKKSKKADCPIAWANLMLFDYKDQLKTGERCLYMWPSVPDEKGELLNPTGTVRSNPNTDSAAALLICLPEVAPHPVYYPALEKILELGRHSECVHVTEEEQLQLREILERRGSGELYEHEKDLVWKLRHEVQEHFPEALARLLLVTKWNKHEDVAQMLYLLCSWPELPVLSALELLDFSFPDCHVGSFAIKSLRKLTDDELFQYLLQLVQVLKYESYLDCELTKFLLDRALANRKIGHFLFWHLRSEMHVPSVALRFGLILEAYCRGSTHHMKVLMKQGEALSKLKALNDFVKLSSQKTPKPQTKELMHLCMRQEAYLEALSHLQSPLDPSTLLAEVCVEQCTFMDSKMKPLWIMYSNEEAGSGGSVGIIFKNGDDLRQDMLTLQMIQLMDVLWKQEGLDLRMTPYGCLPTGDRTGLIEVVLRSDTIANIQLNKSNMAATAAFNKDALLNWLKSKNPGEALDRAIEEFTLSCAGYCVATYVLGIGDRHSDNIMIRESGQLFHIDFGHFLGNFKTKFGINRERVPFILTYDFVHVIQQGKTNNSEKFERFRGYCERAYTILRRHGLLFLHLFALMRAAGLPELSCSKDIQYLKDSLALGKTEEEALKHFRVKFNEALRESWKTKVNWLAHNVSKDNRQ
Briefly: Antagonist activity at PI3Kdelta (unknown origin) using PIP2 as substrate in presence of ATP incubated for 30 to 60 mins by ADP-glo based luminescence assay.

Another series concerns 4T1. The series is described as follows: Cytotoxicity against mouse 4T1 cells assessed as reduction in cell viability incubated for 24 hrs by CCK-8 assay. The format is functional, cell-based. Conditions: 4T1, 24 h.
In series [4] the test system is THP-1. Briefly: Cytotoxicity against human THP-1 cells assessed as reduction in cell viability incubated for 24 hrs by CCK-8 assay. The format is functional, cell-based. Conditions: THP-1, 24 h.
Series [5] has as its system Jurkat. Briefly: Upregulation of phosphorylated ERK1/2 protein expression in human Jurkat cells measured for 3 hrs. Type of series: functional, cell-based. Conditions: dose 0.1-10 µM.
The target in series [6] is T2, Phosphatidylinositol 4,5-bisphosphate 3-kinase catalytic subunit delta isoform (Homo sapiens) (UniProt O00329).
T2 sequence (whole entry): T1 sequence (O00329 whole entry)
Briefly: Antagonist activity at PI3Kdelta (unknown origin) assessed as inhibition rate at 20 nM using PIP2 as substrate in presence of ATP incubated for 30 to 60 mins by ADP-glo based luminescence assay relative to control. Conditions: time 30-60 min. On the technique in general: ADP-Glo first removes unused ATP, then detects ADP through luciferase.

The subject of series [7] is Jurkat. The series is described as follows: Induction of apoptosis against human Jurkat cells assessed as viable cells at 0.1 uM measured for 24 hrs by Annexin V-FITC/propidium iodide staining based flow cytometry (reference value: 94.2 %). The format is functional. To be noted: read-out: Activity. In general terms: Flow cytometry measures light scatter and fluorescence of single cells or particles in a stream.

Another series relates to HepG2. The series is described as follows: Cytotoxicity against human HepG2 cells assessed as reduction in cell viability incubated for 24 hrs by CCK-8 assay. Type of series: functional, cell-based. To be noted: HepG2, 24 h. In general terms: Formazan colour is commonly taken as a measure of viable cells.
The target of series [8] is T3, Phosphatidylinositol 4,5-bisphosphate 3-kinase catalytic subunit gamma isoform (Homo sapiens, UniProt P48736). The series is described as follows: Antagonist activity at PI3Kgamma (unknown origin) assessed as inhibition rate at 20 nM using PIP2 as substrate in presence of ATP incubated for 30 to 60 mins by ADP-glo based luminescence assay relative to control. Conditions: filed as antagonist, time 30-60 min.
Target sequence in this assay (P48736 whole entry, looked up, canonical isoform): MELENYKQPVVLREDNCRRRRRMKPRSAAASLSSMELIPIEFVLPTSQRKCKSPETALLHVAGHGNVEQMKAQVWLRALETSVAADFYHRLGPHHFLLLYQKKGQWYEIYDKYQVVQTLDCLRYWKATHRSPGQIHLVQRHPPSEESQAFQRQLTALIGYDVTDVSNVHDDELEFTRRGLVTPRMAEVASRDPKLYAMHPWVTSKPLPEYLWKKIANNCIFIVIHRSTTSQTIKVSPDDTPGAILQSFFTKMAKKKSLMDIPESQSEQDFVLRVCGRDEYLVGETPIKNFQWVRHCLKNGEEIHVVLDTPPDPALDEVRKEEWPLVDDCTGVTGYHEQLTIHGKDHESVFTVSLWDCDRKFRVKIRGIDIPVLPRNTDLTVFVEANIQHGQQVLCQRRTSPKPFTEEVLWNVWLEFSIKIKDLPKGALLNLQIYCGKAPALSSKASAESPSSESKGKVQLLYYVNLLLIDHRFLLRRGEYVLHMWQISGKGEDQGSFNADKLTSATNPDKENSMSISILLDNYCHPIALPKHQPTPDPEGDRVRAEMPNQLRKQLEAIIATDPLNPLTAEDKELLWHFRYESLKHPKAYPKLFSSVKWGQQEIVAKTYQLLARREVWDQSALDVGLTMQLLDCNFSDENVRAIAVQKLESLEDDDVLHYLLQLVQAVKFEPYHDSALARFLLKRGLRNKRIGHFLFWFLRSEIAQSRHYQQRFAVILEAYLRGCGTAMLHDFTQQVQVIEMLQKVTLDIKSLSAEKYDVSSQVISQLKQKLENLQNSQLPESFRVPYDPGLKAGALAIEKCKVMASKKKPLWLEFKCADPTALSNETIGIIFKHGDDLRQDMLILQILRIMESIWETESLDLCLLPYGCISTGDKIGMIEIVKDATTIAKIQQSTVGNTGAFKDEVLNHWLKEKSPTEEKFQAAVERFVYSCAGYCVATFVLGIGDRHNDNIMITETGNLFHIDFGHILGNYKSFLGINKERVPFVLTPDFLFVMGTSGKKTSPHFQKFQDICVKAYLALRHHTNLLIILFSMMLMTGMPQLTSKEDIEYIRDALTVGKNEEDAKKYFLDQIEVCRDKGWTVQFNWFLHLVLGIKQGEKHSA

The subject of another series is MCF7. The series is described as follows: Cytotoxicity against human MCF7 cells assessed as reduction in cell viability incubated for 24 hrs by CCK-8 assay. Type of series: functional, cell-based. To be noted: MCF7, 24 h.
Series [9] concerns THP-1. The series is described as follows: Induction of apoptosis against human THP-1 cells assessed as viable cells at 0.1 uM measured for 24 hrs by Annexin V-FITC/propidium iodide staining based flow cytometry (reference value: 85.6%). Type of series: functional. Conditions: read-out: Activity.
The subject of series [10] is Jurkat. Briefly: Downregulation of phosphorylated AKT protein expression in human Jurkat cells measured for 3 hrs. The format is functional, cell-based. To be noted: dose 0.1-10 µM.
The target of series [11] is Serine/threonine-protein kinase AKT (Homo sapiens) (UniProt P31751+Q9Y243+P31749). The series is described as follows: Inhibition of AKT phosphorylation in human Jurkat cells at 1 uM incubated for 1 to 12 hrs by Western blot analysis relative to control. The format is cell-based. Conditions: time 1-12 hrs.
Sequence of Serine/threonine-protein kinase AKT (Homo sapiens) (P31749 whole entry, looked up): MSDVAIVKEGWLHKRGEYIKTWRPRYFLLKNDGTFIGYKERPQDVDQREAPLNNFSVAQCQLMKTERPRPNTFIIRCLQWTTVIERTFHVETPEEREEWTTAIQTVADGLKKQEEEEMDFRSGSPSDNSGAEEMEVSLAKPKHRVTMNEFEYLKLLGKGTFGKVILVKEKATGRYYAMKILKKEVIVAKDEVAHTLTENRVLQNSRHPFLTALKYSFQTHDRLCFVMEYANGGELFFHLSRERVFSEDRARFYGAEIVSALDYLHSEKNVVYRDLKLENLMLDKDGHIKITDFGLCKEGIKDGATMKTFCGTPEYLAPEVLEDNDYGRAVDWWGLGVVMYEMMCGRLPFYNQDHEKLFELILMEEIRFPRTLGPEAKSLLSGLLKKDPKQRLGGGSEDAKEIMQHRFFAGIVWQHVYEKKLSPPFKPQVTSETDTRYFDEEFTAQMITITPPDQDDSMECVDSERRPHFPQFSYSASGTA
Sequence of Serine/threonine-protein kinase AKT (Homo sapiens) (P31751 whole entry, looked up): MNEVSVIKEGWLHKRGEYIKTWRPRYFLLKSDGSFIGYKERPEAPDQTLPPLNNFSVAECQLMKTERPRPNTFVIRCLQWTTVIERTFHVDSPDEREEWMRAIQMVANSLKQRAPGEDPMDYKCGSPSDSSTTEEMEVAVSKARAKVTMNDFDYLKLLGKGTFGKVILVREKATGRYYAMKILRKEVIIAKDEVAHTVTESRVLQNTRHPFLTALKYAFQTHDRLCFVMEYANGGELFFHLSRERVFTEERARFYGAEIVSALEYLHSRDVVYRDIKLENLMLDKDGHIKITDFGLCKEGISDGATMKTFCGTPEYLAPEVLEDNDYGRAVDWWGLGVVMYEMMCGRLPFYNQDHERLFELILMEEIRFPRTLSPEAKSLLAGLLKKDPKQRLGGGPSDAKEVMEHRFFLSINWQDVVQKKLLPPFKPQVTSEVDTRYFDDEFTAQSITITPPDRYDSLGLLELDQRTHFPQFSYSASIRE
Sequence of Serine/threonine-protein kinase AKT (Homo sapiens) (Q9Y243 whole entry, looked up): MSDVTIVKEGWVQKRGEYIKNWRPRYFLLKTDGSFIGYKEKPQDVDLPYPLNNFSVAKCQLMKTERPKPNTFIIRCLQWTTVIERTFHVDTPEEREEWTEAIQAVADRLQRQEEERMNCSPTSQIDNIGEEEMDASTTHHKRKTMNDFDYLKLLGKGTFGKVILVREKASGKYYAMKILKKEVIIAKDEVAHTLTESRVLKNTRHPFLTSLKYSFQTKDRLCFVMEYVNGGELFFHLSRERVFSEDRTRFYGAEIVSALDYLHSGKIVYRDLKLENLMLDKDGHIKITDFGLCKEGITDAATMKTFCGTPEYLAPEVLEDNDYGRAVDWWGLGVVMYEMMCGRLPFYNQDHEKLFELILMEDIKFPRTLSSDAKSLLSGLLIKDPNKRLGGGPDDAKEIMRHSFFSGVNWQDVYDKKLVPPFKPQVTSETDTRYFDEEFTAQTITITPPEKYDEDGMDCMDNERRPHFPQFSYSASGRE
In series [12] the test system is Jurkat. The series is described as follows: Induction of apoptosis against human Jurkat cells assessed as late apoptotic cells at 10 uM measured for 24 hrs by Annexin V-FITC/propidium iodide staining based flow cytometry (reference value: 0.00%). The format is functional.
Series [13] is described as follows: Cytotoxicity against mouse L929 cells assessed as reduction in cell viability incubated for 24 hrs by CCK-8 assay. The format is toxicity, cell-based.
The next series deals with A549. Briefly: Cytotoxicity against human A549 cells assessed as reduction in cell viability incubated for 24 hrs by CCK-8 assay. To be noted: A549, 24 h. The format is functional, cell-based.
In series [14] the test system is THP-1. The series is described as follows: Induction of apoptosis against human THP-1 cells assessed as late apoptotic cells at 1 uM measured for 24 hrs by Annexin V-FITC/propidium iodide staining based flow cytometry (reference value: 3.70%). The format is functional.
Series [15] deals with Jurkat. The series is described as follows: Induction of apoptosis against human Jurkat cells assessed as viable cells at 10 uM measured for 24 hrs by Annexin V-FITC/propidium iodide staining based flow cytometry (reference value: 94.2 %). The format is functional. To be noted: read-out: Activity.
The test system of series [16] is Jurkat. Briefly: Induction of apoptosis against human Jurkat cells assessed as early apoptotic cells at 10 uM measured for 24 hrs by Annexin V-FITC/propidium iodide staining based flow cytometry (reference value: 5.76%). Type of series: functional.
The next series concerns MDA-MB-231. Briefly: Cytotoxicity against human MDA-MB-231 cells assessed as reduction in cell viability incubated for 24 hrs by CCK-8 assay. Type of series: functional, cell-based. To be noted: MDA-MB-231, 24 h.
For series [17], the target named is T3, Phosphatidylinositol 4,5-bisphosphate 3-kinase catalytic subunit gamma isoform. The series is described as follows: Antagonist activity at PI3Kgamma (unknown origin) using PIP2 as substrate in presence of ATP incubated for 30 to 60 mins by ADP-glo based luminescence assay.
Target sequence in this assay (P48736 whole entry, canonical isoform): as the sequence (P48736 whole entry, looked up, canonical isoform) above
The test system of series [18] is Jurkat. Briefly: Upregulation of phosphorylated ERK1/2 protein expression in human Jurkat cells at 10 uM measured for 3 hrs. Type of series: functional, cell-based.

Active and inactive are the calls of the source. The calls are words filed in the database; no cut-off is given here. Bounds are passed on as bounds.

`COc1ccc(C#Cc2cccc3cc(C(C)Nc4ncnc5[nH]cnc45)n(-c4ccccc4)c(=O)c23)cc1` (centres undefined): the Activity was 17.7% in the series on Jurkat [1]; 0.125% in the series on THP-1 [2]; “Dose-Dependent Effect” in the series on Jurkat [5]; “Dose-Dependent Effect” in the series on Jurkat [10]; 0.047% with Jurkat [12]; 4.63% in the series with THP-1 [14]. Also, the Activity in the series with Jurkat [16] is 69.7%. The IC50 (usually the concentration that inhibits the measured activity by half) with T47D was > 100 µM; in series [3] it was 0.0131 µM; with 4T1, 9.76 µM; in the series with THP-1 [4], 7.47 µM; with HepG2 it was > 100 µM; in the series with MCF7 it was > 100 µM. The values for the IC50 (in the series with A549; in the series on MDA-MB-231; in series [17]) were > 100 µM, 6.6 µM and 0.208 µM, respectively. For the same compound, the results for the inhibition in series [6] and in [8] were 16% and 53%, respectively. For the same compound, the viability at 0.1 µM in the series with Jurkat [7] and in the series on THP-1 [9] was 66.8% throughout. Further, in series [11], the inhibition (in general, the relative decrease from the control value, in per cent) was “Active”. Further, the IC50 at 24 h in [13] was > 100 µM. In the series on Jurkat [15], the viability at 10 µM was found to be 30.2%. Moreover, in the series with Jurkat [18], the result was Active.
